Assay results reported in ChEMBL document CHEMBL1641539 (Bioorg Med Chem Lett, 2011).

How the values were obtained:
[1] = molecular target: Casein kinase I isoform gamma-1 (Homo sapiens) (UniProt Q9HCP0); assay: Inhibition of human CK1gamma1 at 10 uM after 60 mins by TR-FRET assay; values are per cent of control
[2] = molecular target: Cyclin-dependent kinase 5/CDK5 activator 1 (Homo sapiens) (UniProt Q00535+Q15078); assay: Inhibition of human CDK5/p25 at 10 uM after 60 mins by TR-FRET assay; values are per cent of control
[3] = molecular target: Mitogen-activated protein kinase 12 (Homo sapiens) (UniProt P53778); assay: Inhibition of human SAPK3 at 10 uM after 60 mins by TR-FRET assay; settings: values are per cent of control
[4] = molecular target: Vascular endothelial growth factor receptor 2 (Homo sapiens) (UniProt P35968); assay: Inhibition of human KDR at 10 uM after 60 mins by TR-FRET assay; values are per cent of control
[5] = molecular target: Muscle, skeletal receptor tyrosine-protein kinase (Homo sapiens) (UniProt O15146); assay: Inhibition of human MuSK at 10 uM after 60 mins by TR-FRET assay; values are per cent of control
[6] = molecular target: Mitogen-activated protein kinase 11 (Homo sapiens) (UniProt Q15759); assay: Inhibition of human SAPK2b at 10 uM after 60 mins by TR-FRET assay; settings: values are per cent of control
[7] = molecular target: Serine/threonine-protein kinase MARK2 (Homo sapiens) (UniProt Q7KZI7); assay: Inhibition of human PAR-1Balpha at 10 uM after 60 mins by TR-FRET assay; values are per cent of control
[8] = molecular target: PAS domain-containing serine/threonine-protein kinase (Homo sapiens) (UniProt Q96RG2); assay: Inhibition of human PASK at 10 uM after 60 mins by TR-FRET assay; values are per cent of control
[9] = molecular target: Serine/threonine-protein kinase 17A (Homo sapiens) (UniProt Q9UEE5); assay: Inhibition of human DRAK1 at 10 uM after 60 mins by TR-FRET assay; values are per cent of control
[10] = molecular target: BDNF/NT-3 growth factors receptor (Homo sapiens) (UniProt Q16620); assay: Inhibition of human TrkB at 10 uM after 60 mins by TR-FRET assay; values are per cent of control
[11] = molecular target: Serine/threonine-protein kinase D1 (Homo sapiens) (UniProt Q15139); assay: Inhibition of human PKCmu at 10 uM after 60 mins by TR-FRET assay; values are per cent of control
Homo sapiens = species on record: Homo sapiens; assay: Inhibition of human PKA at 10 uM after 60 mins by TR-FRET assay; values are per cent of control
[12] = molecular target: Dual specificity protein kinase CLK2 (Homo sapiens) (UniProt P49760); assay: Inhibition of human CLK2 at 10 uM after 60 mins by TR-FRET assay; values are per cent of control
[13] = molecular target: Rho-associated protein kinase 2 (Homo sapiens) (UniProt O75116); assay: Inhibition of human ROCK-2 at 10 uM after 60 mins by TR-FRET assay; values are per cent of control
[14] = molecular target: Protein-tyrosine kinase 6 (Homo sapiens) (UniProt Q13882); assay: Inhibition of human BRK at 10 uM after 60 mins by TR-FRET assay; values are per cent of control
[15] = molecular target: Myotonin-protein kinase (Homo sapiens) (UniProt Q09013); assay: Inhibition of human DMPK at 10 uM after 60 mins by TR-FRET assay; values are per cent of control
[16] = molecular target: Serine/threonine-protein kinase VRK2 (Homo sapiens) (UniProt Q86Y07); assay: Inhibition of human VRK2 at 10 uM after 60 mins by TR-FRET assay; values are per cent of control
[17] = molecular target: Tyrosine-protein kinase SYK (Homo sapiens) (UniProt P43405); assay: Inhibition of human Syk at 10 uM after 60 mins by TR-FRET assay; settings: values are per cent of control
[18] = molecular target: Serine/threonine-protein kinase 24 (Homo sapiens) (UniProt Q9Y6E0); assay: Inhibition of human MST3 at 10 uM after 60 mins by TR-FRET assay; settings: values are per cent of control
[19] = molecular target: Tyrosine-protein kinase ABL1 (Mus musculus) (UniProt P00520); assay: Inhibition of mouse Abl at 10 uM after 60 mins by TR-FRET assay; values are per cent of control
Rattus norvegicus = species on record: Rattus norvegicus; assay: Inhibition of rat AMPK at 10 uM after 60 mins by TR-FRET assay; values are per cent of control
[20] = molecular target: Cyclin-dependent kinase 7/ cyclin H (Homo sapiens) (UniProt P51946+P50613); assay: Inhibition of human CDK7/cyclinH/MAT1 at 10 uM after 60 mins by TR-FRET assay; values are per cent of control
[21] = molecular target: cGMP-dependent protein kinase 1 (Homo sapiens) (UniProt Q13976); assay: Inhibition of human PKG1beta at 10 uM after 60 mins by TR-FRET assay; values are per cent of control
[22] = molecular target: Ephrin type-A receptor 1 (Homo sapiens) (UniProt P21709); assay: Inhibition of human EphA1 at 10 uM after 60 mins by TR-FRET assay; values are per cent of control
[23] = molecular target: Dual specificity mitogen-activated protein kinase kinase 4 (Mus musculus) (UniProt P47809); assay: Inhibition of mouse MKK4 at 10 uM after 60 mins by TR-FRET assay; values are per cent of control
[24] = molecular target: Protein kinase C epsilon type (Homo sapiens) (UniProt Q02156); assay: Inhibition of human PKCepsilon at 10 uM after 60 mins by TR-FRET assay; values are per cent of control
[25] = test system: Proto-oncogene tyrosine-protein kinase receptor Ret (Homo sapiens), P07949 [V804L]; assay: Inhibition of human Ret V804L mutant at 10 uM after 60 mins by TR-FRET assay; values are per cent of control
[26] = molecular target: Calcium/calmodulin-dependent protein kinase type II subunit gamma (Homo sapiens) (UniProt Q13555); assay: Inhibition of human CaMK2gamma at 10 uM after 60 mins by TR-FRET assay; values are per cent of control

Sequence of Serine/threonine-protein kinase MARK2 (Homo sapiens) (Q7KZI7 whole entry, the tested form may be a part): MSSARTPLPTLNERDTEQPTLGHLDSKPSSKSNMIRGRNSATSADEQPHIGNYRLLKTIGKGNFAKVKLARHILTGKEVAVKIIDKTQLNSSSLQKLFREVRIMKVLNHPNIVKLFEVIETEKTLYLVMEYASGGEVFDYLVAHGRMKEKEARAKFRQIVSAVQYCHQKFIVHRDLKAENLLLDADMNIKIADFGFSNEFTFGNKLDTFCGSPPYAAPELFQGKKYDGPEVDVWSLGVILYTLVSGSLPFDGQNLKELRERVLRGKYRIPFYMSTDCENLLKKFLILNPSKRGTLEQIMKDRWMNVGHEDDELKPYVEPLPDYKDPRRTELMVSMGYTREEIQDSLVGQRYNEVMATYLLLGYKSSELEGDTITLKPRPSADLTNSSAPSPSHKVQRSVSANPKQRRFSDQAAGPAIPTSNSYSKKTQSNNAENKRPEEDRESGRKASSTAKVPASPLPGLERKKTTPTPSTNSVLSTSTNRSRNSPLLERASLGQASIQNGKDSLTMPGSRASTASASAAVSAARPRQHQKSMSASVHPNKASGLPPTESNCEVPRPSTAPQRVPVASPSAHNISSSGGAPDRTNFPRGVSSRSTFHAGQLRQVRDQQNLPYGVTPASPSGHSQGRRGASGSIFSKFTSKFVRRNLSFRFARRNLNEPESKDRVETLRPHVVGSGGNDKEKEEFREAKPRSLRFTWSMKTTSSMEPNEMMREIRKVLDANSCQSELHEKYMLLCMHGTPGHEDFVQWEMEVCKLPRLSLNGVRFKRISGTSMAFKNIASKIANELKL
Sequence of Serine/threonine-protein kinase 17A (Homo sapiens) (Q9UEE5 whole entry): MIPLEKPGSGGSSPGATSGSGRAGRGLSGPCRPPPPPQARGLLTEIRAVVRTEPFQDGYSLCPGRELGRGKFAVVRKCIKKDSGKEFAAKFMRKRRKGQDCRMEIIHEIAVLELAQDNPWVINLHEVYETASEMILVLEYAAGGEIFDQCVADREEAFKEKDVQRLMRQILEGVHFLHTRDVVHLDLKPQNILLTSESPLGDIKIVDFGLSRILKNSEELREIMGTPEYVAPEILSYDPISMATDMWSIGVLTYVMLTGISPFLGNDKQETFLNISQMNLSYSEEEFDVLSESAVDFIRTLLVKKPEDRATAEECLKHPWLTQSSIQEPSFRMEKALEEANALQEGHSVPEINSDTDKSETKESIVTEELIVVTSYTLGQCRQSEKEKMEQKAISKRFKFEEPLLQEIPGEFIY
Sequence of Cyclin-dependent kinase 5/CDK5 activator 1 (Homo sapiens) (Q00535 whole entry): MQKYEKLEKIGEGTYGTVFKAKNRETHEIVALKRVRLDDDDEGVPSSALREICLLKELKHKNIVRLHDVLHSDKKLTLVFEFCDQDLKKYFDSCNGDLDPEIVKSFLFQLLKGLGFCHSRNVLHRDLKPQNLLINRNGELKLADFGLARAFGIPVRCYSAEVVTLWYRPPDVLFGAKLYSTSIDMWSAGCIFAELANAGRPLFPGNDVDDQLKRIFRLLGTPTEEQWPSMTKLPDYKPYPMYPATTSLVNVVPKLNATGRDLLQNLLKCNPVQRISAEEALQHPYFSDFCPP
Sequence of Cyclin-dependent kinase 5/CDK5 activator 1 (Homo sapiens) (Q15078 99-307 partner limits assumed): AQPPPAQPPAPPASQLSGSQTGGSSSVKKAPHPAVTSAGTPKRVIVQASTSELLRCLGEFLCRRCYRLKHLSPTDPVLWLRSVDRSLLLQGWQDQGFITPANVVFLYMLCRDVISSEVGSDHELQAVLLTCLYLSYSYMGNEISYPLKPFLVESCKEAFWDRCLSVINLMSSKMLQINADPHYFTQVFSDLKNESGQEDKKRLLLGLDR
Sequence of cGMP-dependent protein kinase 1 (Homo sapiens) (Q13976 whole entry): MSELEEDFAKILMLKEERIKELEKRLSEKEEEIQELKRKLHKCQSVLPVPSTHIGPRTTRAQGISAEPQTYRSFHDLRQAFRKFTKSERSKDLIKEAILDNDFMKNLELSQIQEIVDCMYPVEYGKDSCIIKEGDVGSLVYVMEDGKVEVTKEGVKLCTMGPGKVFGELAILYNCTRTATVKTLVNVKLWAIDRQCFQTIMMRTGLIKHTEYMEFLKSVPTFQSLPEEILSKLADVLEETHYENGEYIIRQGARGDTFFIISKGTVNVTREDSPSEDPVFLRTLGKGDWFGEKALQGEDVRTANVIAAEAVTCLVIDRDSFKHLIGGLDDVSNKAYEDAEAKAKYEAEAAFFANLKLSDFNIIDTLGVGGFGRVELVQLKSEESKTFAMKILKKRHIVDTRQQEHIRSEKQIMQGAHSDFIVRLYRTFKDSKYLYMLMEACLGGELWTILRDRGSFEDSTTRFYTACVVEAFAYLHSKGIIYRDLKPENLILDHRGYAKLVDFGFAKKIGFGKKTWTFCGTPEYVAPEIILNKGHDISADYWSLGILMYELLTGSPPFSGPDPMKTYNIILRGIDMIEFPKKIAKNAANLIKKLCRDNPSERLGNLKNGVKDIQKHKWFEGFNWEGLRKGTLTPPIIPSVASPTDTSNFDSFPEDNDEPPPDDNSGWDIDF
Sequence of Serine/threonine-protein kinase D1 (Homo sapiens) (Q15139 whole entry): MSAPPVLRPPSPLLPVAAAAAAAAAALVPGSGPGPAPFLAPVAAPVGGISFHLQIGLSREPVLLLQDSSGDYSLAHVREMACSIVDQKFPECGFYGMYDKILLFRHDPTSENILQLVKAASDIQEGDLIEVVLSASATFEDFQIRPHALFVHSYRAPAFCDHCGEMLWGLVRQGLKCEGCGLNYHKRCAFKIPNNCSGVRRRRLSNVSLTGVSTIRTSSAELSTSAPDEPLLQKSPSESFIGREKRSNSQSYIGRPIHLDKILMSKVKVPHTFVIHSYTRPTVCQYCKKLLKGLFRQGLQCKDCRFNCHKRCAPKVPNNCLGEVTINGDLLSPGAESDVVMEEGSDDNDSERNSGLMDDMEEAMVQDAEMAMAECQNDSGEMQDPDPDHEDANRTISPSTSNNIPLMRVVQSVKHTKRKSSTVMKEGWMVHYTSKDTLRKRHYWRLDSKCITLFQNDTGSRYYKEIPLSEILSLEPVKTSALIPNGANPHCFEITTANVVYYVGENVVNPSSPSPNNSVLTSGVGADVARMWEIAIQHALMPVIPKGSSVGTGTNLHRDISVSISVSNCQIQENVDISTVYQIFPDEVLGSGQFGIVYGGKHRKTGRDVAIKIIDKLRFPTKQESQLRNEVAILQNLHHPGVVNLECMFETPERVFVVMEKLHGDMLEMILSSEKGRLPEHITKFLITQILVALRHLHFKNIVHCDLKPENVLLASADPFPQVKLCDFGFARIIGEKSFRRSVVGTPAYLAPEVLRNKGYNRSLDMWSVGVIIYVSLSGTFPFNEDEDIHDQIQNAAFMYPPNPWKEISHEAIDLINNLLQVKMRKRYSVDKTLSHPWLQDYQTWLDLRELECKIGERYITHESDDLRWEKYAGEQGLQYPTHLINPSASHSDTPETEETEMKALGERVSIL
Sequence of Muscle, skeletal receptor tyrosine-protein kinase (Homo sapiens) (O15146 whole entry): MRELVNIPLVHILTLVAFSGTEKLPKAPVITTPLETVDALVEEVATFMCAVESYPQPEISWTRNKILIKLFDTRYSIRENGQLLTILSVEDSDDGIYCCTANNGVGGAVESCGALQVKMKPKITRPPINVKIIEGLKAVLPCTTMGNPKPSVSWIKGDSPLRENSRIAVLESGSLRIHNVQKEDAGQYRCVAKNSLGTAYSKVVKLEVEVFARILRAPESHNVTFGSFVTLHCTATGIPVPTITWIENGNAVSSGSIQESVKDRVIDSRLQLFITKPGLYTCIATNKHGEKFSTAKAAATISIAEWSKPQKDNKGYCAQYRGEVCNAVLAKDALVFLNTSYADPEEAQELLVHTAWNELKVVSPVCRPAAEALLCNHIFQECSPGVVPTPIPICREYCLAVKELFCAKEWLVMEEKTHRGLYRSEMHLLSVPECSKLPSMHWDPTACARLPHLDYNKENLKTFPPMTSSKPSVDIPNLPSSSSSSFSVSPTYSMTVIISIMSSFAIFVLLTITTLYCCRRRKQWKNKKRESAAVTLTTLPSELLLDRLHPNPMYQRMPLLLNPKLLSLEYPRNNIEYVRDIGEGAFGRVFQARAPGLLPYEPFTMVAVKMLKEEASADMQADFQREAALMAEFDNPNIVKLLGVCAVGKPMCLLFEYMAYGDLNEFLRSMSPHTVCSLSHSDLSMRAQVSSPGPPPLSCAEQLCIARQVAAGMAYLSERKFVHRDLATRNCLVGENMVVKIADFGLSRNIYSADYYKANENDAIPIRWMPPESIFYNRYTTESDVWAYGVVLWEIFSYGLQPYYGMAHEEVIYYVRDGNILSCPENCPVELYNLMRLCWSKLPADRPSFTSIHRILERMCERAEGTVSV
Sequence of BDNF/NT-3 growth factors receptor (Homo sapiens) (Q16620 32-822 limits assumed): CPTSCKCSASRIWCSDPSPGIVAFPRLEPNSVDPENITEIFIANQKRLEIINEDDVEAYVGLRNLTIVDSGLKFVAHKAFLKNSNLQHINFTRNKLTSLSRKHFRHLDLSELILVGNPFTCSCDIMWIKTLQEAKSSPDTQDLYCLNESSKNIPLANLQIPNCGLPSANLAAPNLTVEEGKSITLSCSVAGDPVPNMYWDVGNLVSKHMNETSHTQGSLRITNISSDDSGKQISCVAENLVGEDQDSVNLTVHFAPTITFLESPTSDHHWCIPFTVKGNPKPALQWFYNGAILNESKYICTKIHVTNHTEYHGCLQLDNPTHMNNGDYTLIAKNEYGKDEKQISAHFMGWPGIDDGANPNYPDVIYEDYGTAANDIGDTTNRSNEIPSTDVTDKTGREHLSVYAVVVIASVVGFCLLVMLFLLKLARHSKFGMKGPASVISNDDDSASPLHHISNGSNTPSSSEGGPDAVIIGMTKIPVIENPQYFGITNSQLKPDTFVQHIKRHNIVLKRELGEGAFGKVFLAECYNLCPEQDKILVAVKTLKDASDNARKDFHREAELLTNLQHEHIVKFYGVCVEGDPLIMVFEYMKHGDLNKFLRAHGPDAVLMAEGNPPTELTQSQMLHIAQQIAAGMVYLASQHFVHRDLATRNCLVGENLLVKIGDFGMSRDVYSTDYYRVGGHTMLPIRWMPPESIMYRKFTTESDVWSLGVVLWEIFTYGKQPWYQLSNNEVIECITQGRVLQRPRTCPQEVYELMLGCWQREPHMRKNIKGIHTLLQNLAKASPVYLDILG

SMILES: S=c1[nH]nc(-c2ccncc2)n1-c1ccc2ccccc2c1
- residual activity [1]: 105%
- residual activity [2]: 112%
- residual activity [3]: 110%
- residual activity [4]: 105%
- residual activity [5]: 114%
- residual activity [6]: 90%
- residual activity [7]: 110%
- residual activity [8]: 99%
- residual activity [9]: 96%
- residual activity [10]: 114%
- residual activity [11]: 104%
- residual activity (Homo sapiens): 93%
- residual activity [12]: 104%
- residual activity [13]: 101%
- residual activity [14]: 101%
- residual activity [15]: 111%
- residual activity [16]: 122%
- residual activity [17]: 116%
- residual activity [18]: 111%
- residual activity [19]: 94%
- residual activity (Rattus norvegicus): 108%
- residual activity [20]: 113%
- residual activity [21]: 109%
- residual activity [22]: 103%
- residual activity [23]: 106%
- residual activity [24]: 100%
- residual activity [25]: 109%
- residual activity [26]: 118%
